Key:
[1] = system: ST2 cells; test: Osteoblast differentiation test (alkaline phosphatase activity); assay type: cell-based; conditions: Mus musculus, ST-2, 96 h; at 0.03 μg/mL; culturing for four days; control group (0.1% DMSO) = 100%; read-out: alkaline phosphatase activity increase rate
Experimental: ST2 cells (available from Institute of Physical and Chemical Research) which are stroma cells derived from mouse marrow were used. In this test, α-MEM medium (available from GIBCO BRL Cat. No. 10370-021) with which 10% (v/v) inactivated fetal bovine serum (available from Hyclone Company, FBS) and 1% (v/v) Penicillin-Streptomycin, Liquid (available from GIBCO BRL Cat. No. 15140-122) are mixed (hereinbelow abbreviated as 10% -FBS-αMEM) was used. Every culture in this test was conducted in a CO2 incubator (37° C., 95% humidity, 5% CO2).
The cells mentioned above were harvested with 2 mL of 0.25% trypsin solution (available from GIBCO BRL Cat. No. 15050-065) and after they were dispersed by adding 10 mL of 10% -FBS-αMEM, the cells were collected by centrifugal separation (25° C., 800 rpm, 5 minutes). A cell suspension containing 40,000 cells/mL was prepared from the collected cells using 10% -FBS-αMEM.
The cell suspension was dispensed to the wells of a 96 well microplate (Falcon company) in an amount of 100 μL per well so as to achieve 4,000 cells/well and cultured for 24 hours. Compounds were dispensed to the wells in final concentrations of 0.01, 0.03, 0.1, 0.3 μg/ml except the following control group. DMSO was dispensed to the wells of the control group in a final concentration of 0.1% (v/v). Alkaline phosphatase (ALP) activity was measured for each group after culturing for four days.
The measurement of ALP activity was performed as follows. That is, after the whole medium was removed from each well of the culturing plate, each well was washed twice by dispensing and removing 100 μL of Dulbecco's phosphate buffer (available from GIBCO BRL Cat. No. 14190-144). Cell lysing solution containing 10 mM MgCl2 and 2%(v/v) TritonX-100 (Sigma company) was prepared and 50 μL/well of the cell lysing solution was dispensed and the mixture was stirred at room temperature for five minutes. An ALP substrate solution containing 50 mM of diethanolamine (Wako Pure Chemical Industries, Ltd. Cat. No. 099-03112) and 20 mM of […] (Wako Pure Chemical Industries, Ltd. Cat. No. 147-02343) was prepared and 50 μL/well of the ALP substrate solution was dispensed and after allowing to stand at room temperature for 10 minutes, absorbance was measured using a microplate reader (Bio-rad company). Alkaline phosphatase activity increase rate (%) in the group blended with test compounds was calculated assuming the observed value of the control group of each plate to be 100% and evaluated as the osteoblast differentiation promoting activity.

[2] = system: cells from femurs and tibias of ICR mice; test: Osteoclast formation suppression test (TRAP activity); assay type: cell-based, mouse; conditions: 20 nM active form vitamin D3; compounds 0.01-0.3 μg/ml; culturing for five days
Experimental: 18 day-old ICR mice were purchased from Japan SLC, Inc. and used in the following experiments. The mice were sacrificed by cervical dislocation and the right and left femurs and tibias were extracted. After the tissue around the extracted femurs and tibias was removed, they were finely minced with scissors. 10 mL of 15%-FBS-αMEM was added to the minced femurs and tibias and the supernatant was collected after agitation for one minute and filtering with a cell strainer (Becton Dickinson company). A cell suspension containing 500,000 cells/mL was prepared with 15%-FBS-αMEM. The cell suspension was dispensed to the wells of a 96 well microplate (Falcon company) in an amount of 100 μL per well so as to achieve 50,000 cells/well and cultured for 24 hours. Active form vitamin D3 (Sigma company, Cat.No.D1530) was dispensed to the wells in final concentrations of 20 nM. Compounds were dispensed to the wells in final concentrations of 0.01, 0.03, 0.1, 0.3 μg/ml except the following control group. DMSO was dispensed to the wells of the control group in a final concentration of 0.1% (v/v). Tartrate-resistant acid phosphatase (TRAP) activity was measured for each group after culturing for five days.
The measurement of TRAP activity was performed as follows. That is, after the whole medium was removed from each well of the culturing plate, each well was washed twice by dispensing and removing 100 μL of Dulbecco's phosphate buffer (available from GIBCO BRL Cat. No. 14190-144). After retaining with a mixture of acetone-ethanol (1:1) for one minute, the retention liquid was removed and the wells were stained at 37° C. with Leukocyte acid phosphatase kit (Sigma company, Cat. No. 387-A) for 30 minutes. The staining solution was removed, then 100 μL of 10% sodium dodecylsulfate (Wako Pure Chemical Industries, Ltd. Cat. No. 191-07145) was dispensed and the mixture was stirred for five minutes, and then absorbance was measured using a microplate reader (Bio-rad company). TRAP activity decrease rate (%) in the group blended with test compounds was calculated assuming the observed value of the control group of each plate to be 100% and evaluated as the osteoclast formation suppression activity.

[3] = system: female F344 rats; test: Effect on bone mineral density (ovariectomy); assay type: in vivo, rat; conditions: 10 mg/kg, orally once per day, six days a week, six weeks
Experimental: 8 week-old female F344 rats were purchased from Charles River Laboratories and used in the following experiment. After ketamine (12.5 mg/ml)/xylazine (2.5 mg/ml) liquid mixture was intraperitoneally injected in an amount of 0.25 ml/100 g for anesthesia, ovariectomy or a sham operation was performed. From the next day of the operation, 0.5% carboxymethyl cellulose sodium salt solution (Wako Pure Chemical Industries, Ltd. Cat. No.039-01335) in which a test compound was suspended was orally administered once per day and six days a week. Six weeks after the administration started, the animals were painlessly killed by removing the whole blood from the aorta abdominalis under ketamine xylazine anesthesia and the right and left femurs were extracted.
After soft tissue was removed from the extracted femurs, the bone density was measured by DXA device DCS-600R (Aloka Co., Ltd.). The bone density was determined for the whole femur as well as three evenly divided parts, i.e., proximal, midshaft and distal end.

[4] = system: female F344 rats; test: Effect on fracture healing; assay type: in vivo, rat; conditions: orally once per day, six days a week, 39 days
Experimental: 12 week-old female F344 rats were purchased from Charles River Laboratories and used in the following experiment. An operation for fracturing bone was performed following a method of Li et al. (J. Bone Miner. Res 1999, 14: 969-979) under ketamine xylazine anesthesia. From the next day of the operation, 0.5% carboxymethyl cellulose sodium salt solution (Wako Pure Chemical Industries, Ltd. Cat. No. 039-01335) in which a test compound was suspended was orally administered once per day and six days a week. 39 days after the administration started, the animals were painlessly killed by removing the whole blood from the aorta abdominalis under ketamine xylazine anesthesia and the femurs were extracted.
After soft tissue was removed from the extracted femurs, they were measured by bone strength measuring apparatus MZ-500D (Maruto Instrument Co., Ltd.). 3-point bending tests were performed and determined by maximum load.

| Compound | activity at 0.03 µg/mL [1] | osteoclast formation suppression effect (TRAP activity decrease rate) [2] | melting point | bone density of femur (DXA) [3] | fracture healing (3-point bending test, maximum load) [4] |
| --- | --- | --- | --- | --- | --- |
| C[S+]([O-])c1ccc(N2CCCN(c3ccnc4sc(C(N)=O)c(N)c34)CC2)cc1 (stereo not shown) [Example 66, 3-amino-4-{4-[4-(methylsulfinyl)phenyl]-1,4-diazepan-1-yl}thieno[2,3-b]pyridine-2-carboxamide] | > 150% | excellent osteoclast formation suppression effect | 153 to 157 °C | – | – |
| Cc1cccc(N2CCCN(c3ccnc4sc(C(N)=O)c(N)c34)CC2)c1 [Example 65, 3-amino-4-[4-(3-toluyl)-1,4-diazepan-1-yl]thieno[2,3-b]pyridine-2-carboxamide] | > 150% | excellent osteoclast formation suppression effect | 209 to 212 °C | – | – |
| NC(=O)c1sc2nccc(N3CCCN(c4ccc5c(c4)OCCO5)CC3)c2c1N [Example 72, 3-amino-4-[4-(2,3-dihydro-1,4-benzodioxin-6-yl)-1,4-diazepan-1-yl]thieno[2,3-b]pyridine-2-carboxamide] | > 150% | excellent osteoclast formation suppression effect | 104 to 107 °C | – | – |
| Cc1ccc(N2CCCN(c3ccnc4sc(C(N)=O)c(N)c34)CC2)nc1 [Example 106, 3-amino-4-[4-(5-methylpyridin-2-yl)-1,4-diazepan-1-yl]thieno[2,3-b]pyridine-2-carboxamide] | > 150% | excellent osteoclast formation suppression effect | 205 to 208 °C | – | – |
| NC(=O)c1sc2nccc(N3CCCN(c4nccs4)CC3)c2c1N [Example 97, 3-amino-4-[4-(1,3-thiazol-2-yl)-1,4-diazepan-1-yl]thieno[2,3-b]pyridine-2-carboxamide] | > 150% | excellent osteoclast formation suppression effect | 243 to 245 °C | – | – |
| NC(=O)c1sc2nccc(N3CCCN(c4ccccn4)CC3)c2c1N [Example 99, 3-amino-4-(4-pyridin-2-yl-1,4-diazepan-1-yl)thieno[2,3-b]pyridine-2-carboxamide] | > 150% | excellent osteoclast formation suppression effect | 237 to 239 °C | – | – |
| CCOc1ccc(N2CCCN(c3ccnc4sc(C(N)=O)c(N)c34)CC2)cc1 [Example 83, 3-amino-4-[4-(4-ethoxyphenyl)-1,4-diazepan-1-yl]thieno[2,3-b]pyridine-2-carboxamide] | > 150% | excellent osteoclast formation suppression effect | 181 to 183 °C | – | – |
| NC(=O)c1sc2nccc(N3CCCN(c4ccccc4)CC3)c2c1N [Example 57, 3-amino-4-(4-phenyl-1,4-diazepan-1-yl)thieno[2,3-b]pyridine-2-carboxamide] | > 150% | excellent osteoclast formation suppression effect | – | significantly increased the bone density | significantly improved fracture healing |
| NC(=O)c1sc2nccc(N3CCCC(CO)C3)c2c1N (stereo not shown) [Example 17, 3-amino-4-[3-(hydroxymethyl)piperidin-1-yl]thieno[2,3-b]pyridine-2-carboxamide] | > 150% | – | 125 to 130 °C | – | – |
| COc1ccc(N2CCCN(c3ccnc4sc(C(N)=O)c(N)c34)CC2)cn1 [Example 98, 3-amino-4-[4-(6-methoxypyridin-3-yl)-1,4-diazepan-1-yl]thieno[2,3-b]pyridine-2-carboxamide] | > 150% | – | 170 to 172 °C | – | – |
| COCC1CCCN(c2ccnc3sc(C(N)=O)c(N)c23)C1 (stereo not shown) [Example 101, 3-amino-4-[3-(methoxymethyl)piperidin-1-yl]thieno[2,3-b]pyridine-2-carboxamide] | > 150% | excellent osteoclast formation suppression effect | 229 to 230 °C | – | – |
| NC(=O)c1sc2nccc(N3CCSCC3)c2c1N [Example 24, 3-amino-4-thiomorpholin-4-ylthieno[2,3-b]pyridine-2-carboxamide] | > 150% | – | 255 to 258 °C | – | – |
| CC(=O)c1ccc(N2CCCN(c3ccnc4sc(C(N)=O)c(N)c34)CC2)cc1 [Example 94, 4-[4-(4-acetylphenyl)-1,4-diazepan-1-yl]-3-aminothieno [2,3-b]pyridine-2-carboxamide] | > 150% | excellent osteoclast formation suppression effect | 279 to 282 °C (dec.) | – | – |
